This test addresses human OX2R (Homo sapiens (Human), UniProt O43614). The test is described as follows: IPOne (IP-1) assay in CHO cells expressing human OX2R. Format: cell-based. As to conditions: for Emax: CHO; for IC50: CHO cells expressing human OX2R, IP-One detection, 2 hours incubation, EC50 = inflection point of four parameter logistic fit, read-out: hOX2R_IP_IC50. The gist of the method: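 CHO cells stably expressing human OX2R were stimulated with compound (10-point ½-log dilutions) for 2 h at 37 °C. IP-1 accumulation was read by HTRF (IP-One, 665/620 nm). EC50 from a four-parameter fit; % effect relative to 1 μM reference agonist control.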

[1] abbreviates: percentage of mean max effect of a reference compound at 1 uM (100% activity by comparison to Orexin A), human OX2R, read-out: Emax (%).

Molecules are shown by their SMILES. Read-outs that look alike come from different tables or passages of the source.

Sequence of human OX2R (O43614 whole entry): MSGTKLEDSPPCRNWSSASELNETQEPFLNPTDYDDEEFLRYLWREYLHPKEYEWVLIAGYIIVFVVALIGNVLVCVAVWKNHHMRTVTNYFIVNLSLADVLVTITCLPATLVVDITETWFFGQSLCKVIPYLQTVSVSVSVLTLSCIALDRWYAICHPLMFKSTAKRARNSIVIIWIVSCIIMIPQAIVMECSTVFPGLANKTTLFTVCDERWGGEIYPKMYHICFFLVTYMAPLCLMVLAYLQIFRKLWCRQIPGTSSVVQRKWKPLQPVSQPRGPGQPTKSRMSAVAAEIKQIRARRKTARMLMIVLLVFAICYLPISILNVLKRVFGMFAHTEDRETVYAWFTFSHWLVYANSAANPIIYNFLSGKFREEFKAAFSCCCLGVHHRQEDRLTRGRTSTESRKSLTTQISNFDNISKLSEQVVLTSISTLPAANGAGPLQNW

For orientation: Emax means the greatest response seen or fitted, relative to the assay's reference. As to `COC(=O)N1[C@H](C)C[C@H](NS(=O)(=O)C(F)F)[C@@H]1CO[C@H]1CC[C@@]2(c3ncc(Cl)cn3)C[C@H]2C1` [Example 78, methyl (2R,3S,5R)-2-((((1S,3S,6R)-6-(5-chloropyrimidin-2-yl)bicyclo[4.1.0]heptan-3-yl)oxy)methyl)-3-((difluoromethyl)sulfonamido)-5-methylpyrrolidine-1-carboxylate], under setting [1], the maximum response (Emax) is 101%.

With `COC(=O)N1[C@H](C)C[C@H](NS(C)(=O)=O)[C@@H]1COC1CCC2(c3ncc(Cl)c(OC)n3)CC2C1` (stereo partly drawn) [Example 70, methyl (2R,3S,5R)-2-(((6-(5-chloro-4-methoxypyrimidin-2-yl)bicyclo[4.1.0]heptan-3-yl)oxy)methyl)-5-methyl-3-(methylsulfonamido)pyrrolidine-1-carboxylate], the Emax is 101% and the IC50 came to 33.5 nM.

For the compound `CC(OC(=O)N1[C@H](C)C[C@H](NS(C)(=O)=O)[C@@H]1CO[C@H]1CC[C@@]2(c3ncc(F)cn3)C[C@H]2C1)C(F)F` (stereo partly drawn) [Example 63, 1,1-Difluoropropan-2-yl (2R,3S,5R)-2-((((1S,3S,6R)-6-(5-fluoropyrimidin-2-yl)bicyclo[4.1.0]heptan-3-yl)oxy)methyl)-5-methyl-3-(methylsulfonamido)pyrrolidine-1-carboxylate], the Emax under setting [1] amounted to 104%.

Consider `COC(=O)N1[C@H](C)C[C@H](NS(C)(=O)=O)[C@@H]1COC1CCC2(c3ncc(F)c(C4CC4)n3)CC2C1` (stereo partly drawn) [Example 74, methyl (2R,3S,5R)-2-(((6-(4-cyclopropyl-5-fluoropyrimidin-2-yl)bicyclo[4.1.0]heptan-3-yl)oxy)methyl)-5-methyl-3-(methylsulfonamido)pyrrolidine-1-carboxylate], for which the maximal response (Emax) under setting [1] worked out at 84%.

Turning to `COC(=O)N1[C@H](C)C[C@H](NS(=O)(=O)N2CCC2)[C@@H]1CO[C@@H]1CC[C@]2(c3ncc(F)cn3)C[C@@H]2C1` [Example 43, methyl (2R,3S,5R)-3-(azetidine-1-sulfonamido)-2-((((1R,3R,6S)-6-(5-fluoropyrimidin-2-yl)bicyclo[4.1.0]heptan-3-yl)oxy)methyl)-5-methylpyrrolidine-1-carboxylate], the Emax under setting [1] is 97.8%.

For the compound `COC(=O)N1[C@H](C)C[C@H](NS(=O)(=O)Cc2ccccc2)[C@@H]1CO[C@@H]1CC[C@]2(c3ncc(F)cn3)C[C@@H]2C1` [Example 45, methyl (2R,3S,5R)-2-((((1R,3R,6S)-6-(5-fluoropyrimidin-2-yl)bicyclo[4.1.0]heptan-3-yl)oxy)methyl)-5-methyl-3-((phenylmethyl)sulfonamido)pyrrolidine-1-carboxylate], the Emax under setting [1] was 92.7%.

In the case of `COC(=O)N1[C@H](C(F)F)C[C@H](NS(=O)(=O)C(F)F)[C@@H]1CO[C@H]1CC[C@@]2(c3ncc(F)cn3)C[C@H]2C1` (single isomer, unassigned) [Example 112], the IC50 came to 0.78 nM. Further, the Emax under setting [1] is 100%.

Take `CCC(OC(=O)N1[C@H](C)C[C@H](NS(C)(=O)=O)[C@@H]1CO[C@H]1CC[C@@]2(c3ncc(F)cn3)C[C@H]2C1)C(F)F` (stereo partly drawn) [Example 50, 1,1-difluorobutan-2-yl (2R,3S,5R)-2-((((1S,3S,6R)-6-(5-fluoropyrimidin-2-yl)bicyclo[4.1.0]heptan-3-yl)oxy)methyl)-5-methyl-3-(methylsulfonamido)pyrrolidine-1-carboxylate]: under setting [1], the Emax was 104%.

`COC(=O)N1[C@H](C)C[C@H](NS(C)(=O)=O)[C@@H]1COC1CCC2(c3ncc(C#N)cn3)CC2C1` (mixture of isomers) [Example 188, methyl (2R,3S,5R)-2-(((6-(5-cyanopyrimidin-2-yl)bicyclo[4.1.0]heptan-3-yl)oxy)methyl)-5-methyl-3-(methylsulfonamido)pyrrolidine-1-carboxylate]: the IC50 is 195 nM. For the same compound, the Emax under setting [1] is 96.9%.

Turning to `CC(C)OC(=O)N1[C@H](C)C[C@H](NS(=O)(=O)CF)[C@@H]1COC1CCC2(c3ncc(Br)cn3)CC2C1` (single isomer, unassigned) [Example 105], the IC50 was found to be 233 nM. Besides, the maximum response (Emax) under setting [1] was found to be 91.7%.

Consider `COC(=O)N1[C@@H]2CCC[C@@H]2[C@H](NS(=O)(=O)C2CC2)[C@@H]1COC1CCC2(c3ncc(F)cn3)CC2C1` (stereo partly drawn) [Example 128, methyl (2R,3S,3aS,6aR)-3-(cyclopropanesulfonamido)-2-(((6-(5-fluoropyrimidin-2-yl)bicyclo[4.1.0]heptan-3-yl)oxy)methyl)hexahydrocyclopenta[b]pyrrole-1(2H)-carboxylate], for which, under setting [1], the Emax is 100%.

On to `COC(=O)N1CC[C@H](NS(C)(=O)=O)[C@@H]1COC1CCC2(c3ncccn3)CC2C1` (stereo partly drawn) [Example 185, methyl (2R,3S)-3-(methylsulfonamido)-2-(((6-(pyrimidin-2-yl)bicyclo[4.1.0]heptan-3-yl)oxy)methyl)pyrrolidine-1-carboxylate], for which, under setting [1], the Emax stood at 94.6%.

Consider `COC(=O)N1[C@H](C)C[C@H](NS(C)(=O)=O)[C@@H]1CO[C@H]1CC[C@@]2(c3ncc(C)cn3)C[C@H]2C1` (single isomer, unassigned) [Example 156], for which the IC50 came out at 19.2 nM. Also, the Emax under setting [1] was 102%.

For the compound `CC(C)OC(=O)N1[C@H](C)C[C@H](NS(=O)(=O)C(F)F)[C@@H]1COC1CCC2(c3ncc(F)cn3)CC2C1` (stereo partly drawn) [Example 109, isopropyl (2R,3S,5R)-3-((difluoromethyl)sulfonamido)-2-(((6-(5-fluoropyrimidin-2-yl)bicyclo[4.1.0]heptan-3-yl)oxy)methyl)-5-methylpyrrolidine-1-carboxylate], the Emax under setting [1] was 105%.

Regarding `CC(C)OC(=O)N1[C@H](C)C[C@H](NS(=O)(=O)N(C)C)[C@@H]1CO[C@@H]1CC[C@]2(c3ncccn3)C[C@@H]2C1` [Example 170, isopropyl (2R,3S,5R)-3-((N,N-dimethylsulfamoyl)amino)-5-methyl-2-((((1R,3R,6S)-6-(pyrimidin-2-yl)bicyclo[4.1.0]heptan-3-yl)oxy)methyl)pyrrolidine-1-carboxylate], the Emax under setting [1] was found to be 99.5%.

With `COC(=O)N1[C@H](C)C[C@H](NS(=O)(=O)C(F)F)[C@@H]1CO[C@H]1CC[C@@]2(c3ncccn3)C[C@H]2C1` [Example 68, methyl (2R,3S,5R)-3-((difluoromethyl)sulfonamido)-5-methyl-2-((((1S,3S,6R)-6-(pyrimidin-2-yl)bicyclo[4.1.0]heptan-3-yl)oxy)methyl)pyrrolidine-1-carboxylate], the Emax under setting [1] was found to be 99.7%.

Turning to `C[C@@H]1C[C@H](NS(C)(=O)=O)[C@H](CO[C@H]2CC[C@@]3(c4ncc(F)cn4)C[C@H]3C2)N1C(=O)OCC(F)F` [Example 66, 2,2-difluoroethyl (2R,3S,5R)-2-((((1S,3S,6R)-6-(5-fluoropyrimidin-2-yl)bicyclo[4.1.0]heptan-3-yl)oxy)methyl)-5-methyl-3-(methylsulfonamido)pyrrolidine-1-carboxylate], the Emax under setting [1] worked out at 101%.

For the compound `CC(C)OC(=O)N1CCC[C@H](NS(=O)(=O)CF)[C@@H]1CO[C@H]1CC[C@@]2(c3ncc(F)cn3)C[C@H]2C1` (single isomer, unassigned) [Example 124], the IC50 stood at 0.37 nM. For the same compound, the Emax under setting [1] turned out to be 99.3%.

Take `COC(=O)N1[C@H](C)C[C@H](NS(=O)(=O)N(C)C)[C@@H]1COC1CCC2(c3cnccn3)CC2C1` (single isomer, unassigned) [Example 11]: under setting [1], the Emax was 96.1%.

Turning to `COC(=O)N1[C@H](C)C[C@H](NS(C)(=O)=O)[C@@H]1COC1CCC2(c3ncccn3)CC2C1` (single isomer, unassigned) [Example 183], the IC50 was determined as 2260 nM. Further, the Emax under setting [1] was found to be 89.7%.

On to `CC(C)OC(=O)N1[C@H](C)C[C@H](NS(=O)(=O)C(F)F)[C@@H]1COC1CC[C@]2(c3ncc(F)cn3)CC2C1` (stereo partly drawn) [Example 110], for which the “Emax (%)” value (percentage of mean max effect of a reference compound at 1 uM (100% activity by comparison to Orexin A), human OX2R) amounted to 100.9%.

On to `COC(=O)N1[C@H](C)C[C@H](NS(=O)(=O)CF)[C@@H]1COC1CCC2(c3ncc(Br)cn3)CC2C1` (stereo partly drawn) [Example 89, methyl (2R,3S,5R)-2-(((6-(5-bromopyrimidin-2-yl)bicyclo[4.1.0]heptan-3-yl)oxy)methyl)-3-((fluoromethyl)sulfonamido)-5-methylpyrrolidine-1-carboxylate], for which the Emax under setting [1] was found to be 104%.

In the case of `COC(=O)N1[C@H](C)C[C@H](NS(=O)(=O)C2COC2)[C@@H]1CO[C@H]1CC[C@@]2(c3ncc(F)cn3)C[C@H]2C1` [Example 40, methyl (2R,3S,5R)-2-((((1S,3S,6R)-6-(5-fluoropyrimidin-2-yl)bicyclo[4.1.0]heptan-3-yl)oxy)methyl)-5-methyl-3-(oxetane-3-sulfonamido)pyrrolidine-1-carboxylate], the Emax under setting [1] amounted to 102%.

Take `CCC(C)S(=O)(=O)N[C@H]1C[C@@H](C)N(C(=O)OC)[C@H]1CO[C@H]1CC[C@@]2(c3ncc(F)cn3)C[C@H]2C1` (stereo partly drawn) [Example 41, methyl (2R,3S,5R)-2-((((1S,3S,6R)-6-(5-fluoropyrimidin-2-yl)bicyclo[4.1.0]heptan-3-yl)oxy)methyl)-5-methyl-3-((1-methylpropyl)sulfonamido)pyrrolidine-1-carboxylate]: under setting [1], the Emax amounted to 104%.

In the case of `COC(=O)N1[C@H](C)C[C@H](NS(C)(=O)=O)[C@@H]1COC1CCC2(c3ncc(F)cn3)CC2C1` (stereo partly drawn) [Example 135, methyl (2R,3S,5R)-2-(((6-(5-fluoropyrimidin-2-yl)bicyclo[4.1.0]heptan-3-yl)oxy)methyl)-5-methyl-3-(methylsulfonamido)pyrrolidine-1-carboxylate], under setting [1], the Emax was 99.5%.

In the case of `COC[C@@H]1C[C@H](NS(C)(=O)=O)[C@H](CO[C@H]2CC[C@@]3(c4ncc(F)cn4)C[C@H]3C2)N1C(=O)OC` [Example 132, methyl (2R,3S,5S)-2-((((1S,3S,6R)-6-(5-fluoropyrimidin-2-yl)bicyclo[4.1.0]heptan-3-yl)oxy)methyl)-5-(methoxymethyl)-3-(methylsulfonamido)pyrrolidine-1-carboxylate], the Emax under setting [1] was determined as 103%.
